≈ marks a conversion by molar mass, not a printed value. Like-named read-outs stand apart in the source and are kept apart here. *1 amine or outer side, *2 acyl side, *3 side chain or, on linkers, in order; H or OH if unused. Where a SMILES comes first, the peptide text is derived from it. Bridges are numbered along the chain shown (N, C = ends). [ ]: non-standard residue; d: D form. The star is where a group is joined. X1 = NC1=N[C@@H]([C@H](N[*:1])C(=O)[*:2])C[C@H](O)N1; ΔAla(Z-3-ureido) = NC(=O)N/C=C(\N)C(=O)O; β3hOrn = NCCC[C@H](N)CC(=O)*; Dap = NC[C@H](N)C(=O)O
Key:
[1] = tested on: CEM leukemia cells; conditions: Mannering et al.; cited from earlier work
[2] = tested on: adriamycin- and vinblastin-resistant CEM cells; conditions: Mannering et al.; cited from earlier work
[3] = tested on: Hela cells; conditions: Mannering et al.; cited from earlier work
[4] = tested on: TB; conditions: currently utilized anti-TB drugs, for comparison; cited from earlier work
[5] = tested on: VRE (Vancomycin Resistant Enterococcus faeclum)
Protocol: (§1) HHC was also tested for effectiveness against various bacterial isolates obtained from human subjects.

[6] = tested on: OxaRSA (Oxacillin Resistant Staphylococcus aureus); experiment: Patient isolates evaluated for antibiotic sensitivity, OxaRSA; conditions: patient G, OxaRSA
Protocol: as §1

[7] = tested on: MRSA (Methicillin Resistant Staphylococcus aureus); experiment: Patient isolates evaluated for antibiotic sensitivity, MRSA
Protocol: as §1

[8] = tested on: Lactobacilli; conditions: U.S. Pat. No. 5,082,975; cited from earlier work
[9] = Carson, 1951; cited from earlier work
[10] = tested on: Listeria monocytogenes; conditions: U.S. Pat. Nos. 5,286,506; 5,455,038; cited from earlier work

Molecule: CC(C)=CCC1=C(O)C(C(=O)C(C)C)=C(O)C(CC=C(C)C)(CC=C(C)C)C1=O [Colupulone]
- activity against CEM leukemia cells [1]: active
- activity against resistant CEM cells [2]: active
- activity against Hela cells [3]: active against Hela cells

Molecule: [H]/N=C(/N)N[C@H]1[C@H](O)[C@@H](O)[C@H](O[C@@H]2O[C@@H](C)[C@](O)(C=O)[C@H]2O[C@@H]2O[C@@H](CO)[C@H](O)[C@@H](O)[C@@H]2NC)[C@@H](N/C(N)=N\[H])[C@@H]1O [Strep, Streptomycin]
- MIC [4]: 1.8 to 17 µM
- antibiotic sensitivity ([5]; patient B, R > 2000 μg/ml): R (R > 2000 μg/ml)

Molecule: CC[C@@H](CO)NCCN[C@@H](CC)CO [Ethambutol]
- MIC [4]: 5 to 25 µM

Molecule: N[C@@H]1CON=C1O [Cycloserine]
- MIC [4]: 147 to 195 µM

Molecule: CC(=O)OCC1=C(C(=O)O)N2C(=O)[C@@H](NC(=O)Cc3cccs3)[C@H]2SC1 [Ceph, Cephalothin]
- antibiotic sensitivity ([6]; R > 32 μg/ml): R (R > 32 μg/ml)
- antibiotic sensitivity ([7]; patient D, R > 32 μg/ml): R (R > 32 μg/ml)
- antibiotic sensitivity ([7]; patient E, R > 32 μg/ml): R (R > 32 μg/ml)

Molecule: CN[C@H](CC(C)C)C(=O)N[C@H]1C(=O)N[C@@H](CC(N)=O)C(=O)N[C@H]2C(=O)N[C@H]3C(=O)N[C@H](C(=O)N[C@H](C(=O)O)c4cc(O)cc(O)c4-c4cc3ccc4O)[C@H](O)c3ccc(c(Cl)c3)Oc3cc2cc(c3O[C@@H]2O[C@H](CO)[C@@H](O)[C@H](O)[C@H]2O[C@H]2C[C@](C)(N)[C@H](O)[C@H](C)O2)Oc2ccc(cc2Cl)[C@H]1O [Vanco, Vancomycin]
- antibiotic sensitivity ([6]; R > 16 μg/ml): S
- antibiotic sensitivity ([7]; patient D, R > 16 μg/ml): S
- antibiotic sensitivity ([7]; patient E, R > 16 μg/ml): S
- antibiotic sensitivity ([5]; patient A, R > 16 μg/ml): R (R > 16 μg/ml)
- antibiotic sensitivity ([5]; patient B, R > 16 μg/ml): R (R > 16 μg/ml)
- antibiotic sensitivity ([5]; patient C, R > 16 μg/ml): S

Molecule: CO[C@H]1/C=C/O[C@@]2(C)Oc3c(C)c(O)c4c(O)c(c(/C=N/N5CCN(C)CC5)c(O)c4c3C2=O)NC(=O)/C(C)=C\C=C\[C@H](C)[C@H](O)[C@@H](C)[C@@H](O)[C@@H](C)[C@H](OC(C)=O)[C@@H]1C [Rif, Rifampin]
- antibiotic sensitivity ([7]; patient F, threshold not given): S
- antibiotic sensitivity ([5]; patient B, threshold not given): S

Molecule: CC(C)CCC1=C(O)C(C(=O)CC(C)C)=C(O)C(CCC(C)C)(CCC(C)C)C1=O [hexahydrolupulone]
- growth inhibition of certain Lactobacilli [8]: inhibits the growth of certain Lactobacilli
- stability relative to non-hydrogenated parent [9]: more stable than lupulone

Molecule: NC(=O)c1cnccn1 [Pyrazinamide]
- MIC [4]: 122 µM (≈ 15 µg/mL)

Molecule: CN(C)[C@@H]1C(=O)C(C(N)=O)=C(O)[C@@]2(O)C(=O)C3=C(O)c4c(O)cccc4[C@@](C)(O)[C@H]3C[C@@H]12 [Tetra, Tetracycline]
- antibiotic sensitivity ([5]; patient A, threshold not given): S
- antibiotic sensitivity ([5]; patient B, threshold not given): S

Molecule: O=C(O)c1cn(C2CC2)c2cc(N3CCNCC3)c(F)cc2c1=O [Cipro, Ciprofloxacin]
- antibiotic sensitivity ([6]; R > 2 μg/ml): R (R > 2 μg/ml)
- antibiotic sensitivity ([7]; patient D, R > 2 μg/ml): R (R > 2 μg/ml)
- antibiotic sensitivity ([7]; patient E, R > 2 μg/ml): R (R > 2 μg/ml)
- antibiotic sensitivity ([7]; patient F, R > 2 μg/ml): R (R > 2 μg/ml)
- antibiotic sensitivity ([5]; patient A, R > 2 μg/ml): R (R > 2 μg/ml)
- antibiotic sensitivity ([5]; patient B, R > 2 μg/ml): R (R > 2 μg/ml)
- antibiotic sensitivity ([5]; patient C, R > 2 μg/ml): R (R > 2 μg/ml)

Molecule: Peniciliin
- antibiotic sensitivity ([6]; R > 8 μg/ml): R (R > 8 μg/ml)
- antibiotic sensitivity ([7]; patient D, R > 8 μg/ml): R (R > 8 μg/ml)
- antibiotic sensitivity ([7]; patient E, R > 8 μg/ml): R (R > 8 μg/ml)
- antibiotic sensitivity ([7]; patient F, R > 8 μg/ml): R (R > 8 μg/ml)
- antibiotic sensitivity ([5]; patient A, R > 8 μg/ml): R (R > 8 μg/ml)
- antibiotic sensitivity ([5]; patient B, R > 8 μg/ml): R (R > 8 μg/ml)
- antibiotic sensitivity ([5]; patient C, R > 8 μg/ml): R (R > 8 μg/ml)

Molecule: Gentamicin
- antibiotic sensitivity ([5]; patient B, threshold not given): S

Molecule: NCCC[C@H](N)CC(=O)N[C@H]1CNC(=O)[C@H]([C@H]2C[C@H](O)NC(N)=N2)NC(=O)/C(=C/NC(N)=O)NC(=O)[C@H](CO)NC(=O)[C@H](CO)NC1=O [Viomycin] (β3hOrn-[Dap]SS[ΔAla(Z-3-ureido)][X1]; lactam 1-C)
- MIC [4]: 1.5 to 15 µM

Molecule: CCC[C@@H]1C[C@@H](C(=O)N[C@@H]([C@H]2O[C@H](SC)[C@H](O)[C@@H](O)[C@H]2O)[C@H](C)Cl)N(C)C1 [Clin, Clindamycin]
- antibiotic sensitivity ([6]; R > 8 μg/ml): R (R > 8 μg/ml)
- antibiotic sensitivity ([7]; patient D, R > 8 μg/ml): R (R > 8 μg/ml)
- antibiotic sensitivity ([7]; patient E, R > 8 μg/ml): R (R > 8 μg/ml)

Molecule: CC1(C)S[C@@H]2[C@H](NC(=O)[C@H](N)c3ccccc3)C(=O)N2[C@H]1C(=O)O [Amp, Ampicillin]
- antibiotic sensitivity ([7]; patient F, R > 8 μg/ml): R (R > 8 μg/ml)
- antibiotic sensitivity ([5]; patient A, R > 8 μg/ml): R (R > 8 μg/ml)
- antibiotic sensitivity ([5]; patient B, R > 8 μg/ml): R (R > 8 μg/ml)
- antibiotic sensitivity ([5]; patient C, R > 8 μg/ml): R (R > 8 μg/ml)

Molecule: CC[C@H]1OC(=O)[C@H](C)[C@@H](O[C@H]2C[C@@](C)(OC)[C@@H](O)[C@H](C)O2)[C@H](C)[C@@H](O[C@@H]2O[C@H](C)C[C@H](N(C)C)[C@H]2O)[C@](C)(O)C[C@@H](C)C(=O)[C@H](C)[C@@H](O)[C@]1(C)O [Eryth, Erythromycin]
- antibiotic sensitivity ([6]; R > 8 μg/ml): R (R > 8 μg/ml)
- antibiotic sensitivity ([7]; patient D, R > 8 μg/ml): R (R > 8 μg/ml)
- antibiotic sensitivity ([7]; patient E, R > 8 μg/ml): R (R > 8 μg/ml)

Molecule: CC(C)CCC(=O)C1(O)C(O)=C(C(=O)CC(C)C)C(=O)C1CCC(C)C (stereo not shown) [tetrahydroisohumulone, reference compound]
- growth inhibition of food pathogens [10]: can inhibit the growth of food pathogens, such as Listeria monocytogenes

Molecule: O=C(N[C@H](CO)[C@H](O)c1ccc([N+](=O)[O-])cc1)C(Cl)Cl [Chlor, Chloramphenicol]
- antibiotic sensitivity ([5]; patient A, threshold not given): S
- antibiotic sensitivity ([5]; patient B, threshold not given): S
- antibiotic sensitivity ([5]; patient C, threshold not given): S

Molecule: NNC(=O)c1ccncc1 [Isoniazid]
- MIC [4]: 1.5 µM (≈ 0.206 µg/mL)

Molecule: Cc1onc(-c2ccccc2)c1C(=O)N[C@@H]1C(=O)N2[C@@H]1SC(C)(C)[C@@H]2C(=O)O [Oxa, Oxacillin]
- antibiotic sensitivity ([6]; R > 8 μg/ml): R (R > 8 μg/ml)
- antibiotic sensitivity ([7]; patient D, R > 8 μg/ml): R (R > 8 μg/ml)
- antibiotic sensitivity ([7]; patient E, R > 8 μg/ml): R (R > 8 μg/ml)

Molecule: CCc1cc(C(N)=S)ccn1 [Ethionamide]
- MIC [4]: 15 µM (≈ 2.49 µg/mL)
